Data from patent US20230255990A1, “USE OF 2'-FL FOR TREATMENT OF SYMPTOMS ASSOCIATED WITH AUTISM SPECTRUM DISORDER” (Glycosyn LLC, priority 2020, published 2023).

Assays:
[1] = tested on: bifidobacteria; settings: alone or in combination with other HMOs; cited from earlier work
[2] = tested on: gastrointestinal mitochondrial function; settings: murine model; pathways of electron transport chain, oxidative phosphorylation, protein targeting to the mitochondrion; cited from earlier work
[3] = tested on: mouse model for ASD; assay: Sociality (aggregons) in mouse model for ASD, pups of antibiotic-treated mothers; format: in vivo
From the text: ASD is a neurobehavioral disorder in which affected individuals have persistent deficits in social communication and interaction (symptom of ASD). To address the impact of 2′-FL administration on social communication and interaction, a mouse model for ASD was designed and experiments conducted to study ASD-associated neurobehavioral disorders such as interpersonal sociality. A depiction of the system used for scoring contact behavior was adapted from known method, e.g., that described by Harshaw, C. et al. (2014). “Sex Differences in Thermogenesis Structure Behavior and Contact within Huddles of Infant Mice.” Plos One, 9(1), 1-15 and Sokoloff G, Blumberg M S. Competition and cooperation among huddling infant rats. Dev Psychobiol. 2001 September; 39(2):65-75. doi: 10.1002/dev.1030, Erratum in: Dev Psychobiol 2001 November; 39(3):229.
The question to be addressed was whether providing 2′-FL rescues the normal sociality of mouse pups whose social interaction was perturbed. Perturbation of behavior was achieved by antibiotic treatment of their mothers using a method previously developed and validated. Sociality is measured by objective measurement of “aggregons” which means the (a) huddling of dams and pups or (b) pups only in groups.
The mouse experiment involved 22 mother-pup litters including a control group (n=7 litters with 28 pups), an antibiotic treated group (7 litters with 28 pups), and a 2′-FL treated group (8 litters with 32 pups).
Mothers were treated with an antibiotic cocktail, starting from gestational day 12; delivery was on day 20. Antibiotic use was continued for mothers postpartum. Treatment of 2′-FL was given to mothers and pups through their water intake. Sociality was measured at night, as mice are nocturnal animals, using the mean number of aggregons (social groupings). Aggregons could consist of individual mice only if they were not huddled with other mice, or they could be a group defined as either one or more pups with the dam, or two or more pups without the dam. The outcome of the experiment was measured on postpartum day 7. […]

[4] = tested on: IL-10 and inflammatory cytokine expression; settings: 2′-FL alone or as part of an HMO mixture, pre-clinical studies; cited from earlier work

Substance: 2′-fucosyllactose [2′-FL]
- growth and relative abundance of bifidobacteria [1]: increases the growth and relative abundance of bifidobacteria
- gastrointestinal mitochondrial function [2]: increase gastrointestinal mitochondrial function
- pup-only aggregons, pattern by experimental group ([3]; night 7, p<0.05, 2′-FL group follows the pattern of the controls): This pattern in the aggregons by experimental group was also observed
- marginal mean of aggregons including dams ([3]; night 7 postpartum, 2′-FL via water intake to mothers and pups, antibiotic-treated group 41, controls 26, lower number = more sociality): 25 aggregons
- sociality of antibiotic-treated mice (dams and their offspring) ([3]; postpartum day 7): normal sociality was rescued
- IL-10 [4]: increase IL-10
- inflammatory cytokine expression [4]: decrease inflammatory cytokine expression
